According to US20080214800A1, “SIRT INHIBITORS THAT BIND TO NAD” (Elixir Pharmaceuticals, Inc., priority 2005, published 2008):

Test system: HeLa cell
Assay: HeLa cell apoptosis assay, Cell Death Detection ELISA plus kit
Type: cell-based
Set-up: unit not given here
Protocol: The following exemplary compounds were evaluated for their effect on a HeLa cell apoptosis assay using the Cell Death Detection ELISA plus kit from Roche Applied Science.

SMILES | average (HeLa apoptosis assay) (dose 0.5) | average (HeLa apoptosis assay) (dose 2.5) | average (HeLa apoptosis assay) (dose 10) | average (HeLa apoptosis assay) (dose 25)
Cn1c2c(c3cc(Cl)ccc31)C(C(N)=O)CCC2 (centres unmarked) [Compound 5] | 1.00 | 0.97 | 1.07 | 0.91
Oc1ccc(/C=C/c2cc(O)cc(O)c2)cc1 [Resveratol] | 0.83 | 0.84 | 1.01 | 0.56
